# Where two headings read alike, the source gives them in different places.
# Legend:
# LAT1 = molecular target: T1, LAT1 (Mus musculus, UniProt Q9Z127); test: Transporter-mediated cellular uptake into primary astrocytes, primary mechanism (Eadie-Hofstee); assay type: in vitro ADME; settings: Eadie-Hofstee analysis, mean ± SD, n = 3
# T1 construct: mouse primary astrocytes, from which we have recently characterized LAT1 expression and function; endogenous in cells; host or cells: mouse primary astrocytes (cortex and hippocampi of 2-day-old wild-type and APP/PS1 mice)
# Description: (§1) For the cell uptake experiments, the astrocytes were seeded on 24-well plates with a density of 10 × 10^4 cells/well three days before the experiments as described earlier. Cellular uptake of derivatives 1-3 of FA was studied by incubating the cells at 37°C for 30 min (uptake was linear with all compounds up to 30 min) with compounds at the concentration of 1-200 μM in prewarmed HBSS buffer (250 μL). […]; Agilent Technologies, Santa Clara, CA). The concentrations of each compound in cell lysates were calculated from the standard curve that was prepared by spiking known amounts of compounds to ACN including the selected internal standard and then normalized with protein concentration. The protein concentrations on each plate were determined as a mean of three samples by Bio-Rad Protein Assay, based on the Bradford dye-binding method, using bovine serum albumin (BSA) as a standard protein and measuring the absorbance (595 nm) by a multiplate reader (EnVision, PerkinElmer, Inc., Waltham, MA, USA).
# (§2) All the cellular studies were carried out as three biological replicates from the same cell passage. The function of LAT1 was followed between the used cell passages (7-16) with a LAT1 probe substrate, [^14C]-L-leucine, and noticed to be unaltered. All statistical analyses, including Michaelis-Menten, Eadie-Hofstee, and Hanes-Woolf analyses, were performed using GraphPad Prism v. 5.03 software (GraphPad Software, San Diego, CA, USA). Statistical differences between groups were tested using one-way ANOVA, followed by Tukey's multiple comparison test, and presented as the mean ± SD, with significant differences denoted by asterisks (^∗P < 0.05, ^∗∗P < 0.01, and ^∗∗∗P < 0.001).
# OATP/OAT = test: Transporter-mediated cellular uptake into primary astrocytes, secondary mechanism (Eadie-Hofstee); assay type: in vitro ADME, mouse; settings: Eadie-Hofstee analysis, mean ± SD, n = 3
# Description: as §1, §2
# primary astrocytes = test: Astrocyte cell growth / viability (resazurin); assay type: cell-based; settings: for Concentrations with significant antiproliferative efficacy on astrocytes: 72 h incubation, 5-400 μM; for Effect on astrocyte viability at low concentrations: 5-100 μM, 72 h
# Description: Primary astrocytes were seeded at the density of 10 × 10^3 cells/well onto collagen-coated 96-well plates. The cells were used for the proliferation experiments one day after seeding. Concentrations of 5-400 μM FA or its LAT1-utilizing derivatives 1-3 were added into the growth medium and incubated for 3 days. Each day, the cell viability was determined by resazurin cell proliferation kit (Sigma, St. Louis, MO, USA), which is directly proportional to aerobic respiration and cellular metabolism of cells. The samples were measured fluorometrically by monitoring the increase in fluorescence at λex 560 nm and λem 590 nm (EnVision, PerkinElmer, Inc., Waltham, MA, USA). The cell viability was also followed by visualizing the wells with microscopy. The ability of compounds to inhibit the viability of the cells was expressed as percentages (%) compared to the untreated controls.
# [1] = molecular target: T2, acetylcholinesterase (AChE) (Mus musculus, UniProt P21836); test: biochemical; assay type: biochemical; settings: for Vmax of AChE activity in the presence of derivative (Hanes-Woolf plot): 16-66 μM derivative, Crtl Vmax = 2.21
# T2 construct: mouse brain S9 fraction was prepared by homogenizing freshly collected mouse brain; from tissue; host or cells: mouse brain S9 fraction (9 000 x g supernatant)
# T2 sequence (P21836 32-614): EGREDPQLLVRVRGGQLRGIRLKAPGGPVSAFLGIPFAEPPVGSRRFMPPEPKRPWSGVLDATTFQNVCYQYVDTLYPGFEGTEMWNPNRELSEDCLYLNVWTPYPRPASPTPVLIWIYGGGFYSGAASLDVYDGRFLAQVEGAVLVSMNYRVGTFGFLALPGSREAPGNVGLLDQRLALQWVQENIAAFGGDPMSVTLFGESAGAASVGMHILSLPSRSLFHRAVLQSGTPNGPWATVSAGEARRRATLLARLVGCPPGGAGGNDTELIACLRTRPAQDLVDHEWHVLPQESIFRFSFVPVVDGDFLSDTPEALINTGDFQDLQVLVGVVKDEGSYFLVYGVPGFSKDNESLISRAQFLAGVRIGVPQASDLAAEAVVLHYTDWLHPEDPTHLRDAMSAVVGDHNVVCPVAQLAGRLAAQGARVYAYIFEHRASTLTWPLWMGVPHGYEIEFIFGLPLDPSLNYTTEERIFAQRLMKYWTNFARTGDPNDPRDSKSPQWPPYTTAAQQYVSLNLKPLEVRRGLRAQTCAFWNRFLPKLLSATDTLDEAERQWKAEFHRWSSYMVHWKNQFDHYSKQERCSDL
# Description: Briefly, mouse brain S9 fraction was prepared by homogenizing freshly collected mouse brain with 50 mM Tris-buffered saline (TBS) (pH 7.4) (1 : 4, w/v), centrifuging the homogenate at 9 000 × g for 20 min at 4°C and collecting the supernatant. The supernatant was then diluted at 1 : 10 with phosphate-buffered saline (100 mM; pH 7.0) and mixed with Ellman's reagent (5,5′-dithiobis-(2-nitrobenzoic acid); DTNB; 1 mM) and studied compounds in DMSO (DMSO concentration was less than 0.5%) on a 96-well plate as 3 parallel assays.
# According to the Hanes-Woolf plots, the ratio of initial substrate concentration to the reaction velocity ([S]/v) was plotted against the substrate concentration (μM).
# in vitro = in vitro ADME; settings: mouse; for fraction unbound at 4 h, 10 μM: C57BL/6J
# Description: The unbound fraction of FA and its derivatives 1-2 was determined at 10 μM in cell homogenate by using a Rapid Equilibrium Dialysis (RED) device (Thermo Fisher Scientific, Inc., Waltham, MA, USA). Briefly, the cell homogenate was prepared from astrocyte cell suspension (10 × 10^6 cells/mL) in HBSS with a SoniPerp 150 Plus disintegrator (MSE Ltd., London, UK) for 2 s × 3. 100 μL of cell homogenate spiked with the studied compound was added to the reaction chamber, and 350 μL of HBSS buffer was added to the buffer chamber of the RED plate. The dialysis plate was incubated at 37°C for 4 h with shaking. 50 μL of samples was taken from the reaction, and buffer chambers and equal size of buffer or blank homogenate were added, respectively, to yield identical matrices. The proteins were precipitated by adding 100 μL of ice-cold ACN (including the selected internal standard; […]
# [2] = mouse brain S9 subcellular fraction, 30 min end point, mean ± SD, n = 3
# [3] = 10 μM in astrocyte cell homogenate, mean ± SD, n = 3, read-out: Unbound fraction fu,cell
# T1 sequence (Q9Z127 whole entry): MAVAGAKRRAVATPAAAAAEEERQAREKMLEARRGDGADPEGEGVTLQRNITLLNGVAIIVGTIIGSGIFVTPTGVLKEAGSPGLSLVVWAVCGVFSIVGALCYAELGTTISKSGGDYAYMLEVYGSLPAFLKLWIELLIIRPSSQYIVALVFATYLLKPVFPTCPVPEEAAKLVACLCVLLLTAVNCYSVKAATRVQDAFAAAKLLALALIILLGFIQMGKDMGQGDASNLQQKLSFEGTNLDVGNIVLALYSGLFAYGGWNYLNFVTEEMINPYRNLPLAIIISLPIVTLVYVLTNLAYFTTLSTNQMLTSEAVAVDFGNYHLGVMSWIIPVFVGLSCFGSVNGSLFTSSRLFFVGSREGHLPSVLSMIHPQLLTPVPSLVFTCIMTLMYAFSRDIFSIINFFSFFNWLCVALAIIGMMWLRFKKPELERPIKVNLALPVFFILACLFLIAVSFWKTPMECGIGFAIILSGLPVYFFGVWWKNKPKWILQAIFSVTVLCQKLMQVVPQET
# T1 sequence (P10852 whole entry partner): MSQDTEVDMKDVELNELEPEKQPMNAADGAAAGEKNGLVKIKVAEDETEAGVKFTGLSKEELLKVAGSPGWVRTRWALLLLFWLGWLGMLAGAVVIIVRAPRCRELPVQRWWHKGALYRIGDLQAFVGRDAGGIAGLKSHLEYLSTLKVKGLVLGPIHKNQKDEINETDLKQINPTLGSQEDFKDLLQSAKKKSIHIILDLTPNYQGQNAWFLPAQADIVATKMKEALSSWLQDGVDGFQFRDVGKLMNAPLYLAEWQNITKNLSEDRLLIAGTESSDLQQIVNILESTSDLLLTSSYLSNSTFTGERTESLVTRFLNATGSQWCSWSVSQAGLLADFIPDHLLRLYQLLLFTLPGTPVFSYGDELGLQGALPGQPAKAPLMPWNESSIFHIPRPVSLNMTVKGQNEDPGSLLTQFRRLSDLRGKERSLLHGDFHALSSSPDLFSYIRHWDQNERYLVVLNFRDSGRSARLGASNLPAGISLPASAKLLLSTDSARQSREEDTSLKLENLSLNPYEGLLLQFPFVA
SMILES,Primary transport mechanism (LAT1) K m (LAT1),Primary transport mechanism (LAT1) V max (LAT1),Secondary transport mechanism (OATP/OAT) K m (OATP/OAT),Secondary transport mechanism (OATP/OAT) V max (OATP/OAT),Concentrations with significant antiproliferative efficacy on astrocytes (primary astrocytes),Vmax of AChE activity in the presence of derivative (Hanes-Woolf plot) [1] [nmol/min/mg],"IC50 [1, 2] [µM]","fraction unbound at 4 h, 10 μM (in vitro; [3])",Effect on astrocyte viability at low concentrations (primary astrocytes),"fraction unbound at 4 h, 10 μM (in vitro; tissue homogenate)","Unbound fraction fu,cell (in vitro; tissue homogenate)","AChE IC50 value [1, 2]"
COc1cc(C=CC(=O)Oc2cccc(CC(N)C(=O)O)c2)ccc1O (stereo not drawn) [FA-derivative 3],Autoactivation,Autoactivation,Autoactivation,Autoactivation,above 200 μM,2.09,66.2 ± 1.23,–,–,–,–,–
COc1cc(C=CC(=O)NCc2cccc(CC(N)C(=O)O)c2)ccc1O (stereo not drawn) [FA-derivative 1],4.1 ± 2.1 µM,0.008 ± 0.002 nmol/min/mg protein,101.1 ± 19.7 µM,0.033 ± 0.402 nmol/min/mg protein,above 200 μM,2.12,16.3 ± 1.52,0.163 ± 0.0272,increased the viability,–,–,–
"COc1cc(/C=C/C(=O)O)ccc1O [FA, trans-4-hydroxy-3-methoxycinnamic acid, reference compound]",Autoactivation,Autoactivation,Autoactivation,Autoactivation,above 200 μM,–,–,–,increased the viability,1,Fully unbound,No inhibition
COc1cc(C=CC(=O)Nc2cccc(CC(N)C(=O)O)c2)ccc1O (stereo not drawn) [FA-derivative 2],4.2 ± 0.8 µM,0.013 ± 0.001 nmol/min/mg protein,153.8 ± 15.0 µM,0.172 ± 0.013 nmol/min/mg protein,above 200 μM,–,25.2 ± 1.43,0.0806 ± 0.0054,increased the viability,–,–,–
